Experimental data reported in ChEMBL document CHEMBL1201862, “PubChem BioAssay data set” (2004).
Calls of active or inactive are those of the source. Rule as the data show it, for most assays here: actives have a measured EC50 and inactives only a lower limit.

What was measured:
[1] = target: T1, Corticotropin-releasing factor receptor 2/Corticotropin-releasing factor-binding protein (Homo sapiens, UniProt P24387+Q13324); assay: activators of CRF receptor 2 with binding protein – uHTS hits, confirmation (AID 602473); type: functional; settings: read-out: EC50_Mean
T1 sequence (Q13324 whole entry): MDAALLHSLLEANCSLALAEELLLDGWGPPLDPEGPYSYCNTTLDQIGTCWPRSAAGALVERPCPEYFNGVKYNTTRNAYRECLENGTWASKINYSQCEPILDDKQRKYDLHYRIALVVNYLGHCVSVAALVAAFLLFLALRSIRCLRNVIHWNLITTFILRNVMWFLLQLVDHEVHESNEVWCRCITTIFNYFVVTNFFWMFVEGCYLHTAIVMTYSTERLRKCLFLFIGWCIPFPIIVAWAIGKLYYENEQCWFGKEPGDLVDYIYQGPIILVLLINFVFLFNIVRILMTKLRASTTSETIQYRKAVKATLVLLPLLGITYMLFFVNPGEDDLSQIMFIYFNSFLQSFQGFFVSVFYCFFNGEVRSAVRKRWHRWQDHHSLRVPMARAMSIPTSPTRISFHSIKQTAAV
T1 sequence (P24387 whole entry): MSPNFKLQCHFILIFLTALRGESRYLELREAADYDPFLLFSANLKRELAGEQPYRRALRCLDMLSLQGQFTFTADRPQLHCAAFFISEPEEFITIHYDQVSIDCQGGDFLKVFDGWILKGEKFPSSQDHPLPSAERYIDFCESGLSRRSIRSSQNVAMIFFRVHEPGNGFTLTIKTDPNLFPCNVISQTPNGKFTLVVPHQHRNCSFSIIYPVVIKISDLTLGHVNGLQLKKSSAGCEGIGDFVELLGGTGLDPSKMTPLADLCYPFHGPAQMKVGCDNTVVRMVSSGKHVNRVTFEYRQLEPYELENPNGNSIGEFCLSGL

[2] = target: T1, Corticotropin-releasing factor receptor 2/Corticotropin-releasing factor-binding protein; assay: Dose Response confirmation of uHTS hits for small molecule antagonists of the CRF-binding protein and CRF-R2 receptor complex.; type: functional; settings: read-out: IC50_Mean
Protein skinhead-1 = target: T2, Protein skinhead-1 (Caenorhabditis elegans, UniProt P34707); type: functional
T2 sequence (P34707 whole entry): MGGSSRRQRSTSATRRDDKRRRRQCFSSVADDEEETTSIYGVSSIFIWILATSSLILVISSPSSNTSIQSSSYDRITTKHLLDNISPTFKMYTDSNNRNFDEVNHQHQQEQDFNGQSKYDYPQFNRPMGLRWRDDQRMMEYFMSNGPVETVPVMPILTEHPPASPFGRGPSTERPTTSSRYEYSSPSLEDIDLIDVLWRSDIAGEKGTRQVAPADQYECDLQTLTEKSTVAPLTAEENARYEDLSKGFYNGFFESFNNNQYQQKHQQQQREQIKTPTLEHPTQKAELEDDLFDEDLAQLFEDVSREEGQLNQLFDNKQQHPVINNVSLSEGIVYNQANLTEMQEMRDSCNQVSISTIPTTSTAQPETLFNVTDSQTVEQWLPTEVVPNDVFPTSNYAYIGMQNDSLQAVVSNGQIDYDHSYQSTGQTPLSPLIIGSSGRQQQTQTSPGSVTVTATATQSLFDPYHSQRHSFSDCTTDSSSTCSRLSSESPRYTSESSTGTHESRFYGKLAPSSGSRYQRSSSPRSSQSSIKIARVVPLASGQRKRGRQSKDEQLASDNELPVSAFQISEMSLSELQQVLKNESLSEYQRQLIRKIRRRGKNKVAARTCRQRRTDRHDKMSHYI

[3] = target: T3, Heat shock factor protein 1 (Mus musculus, UniProt P38532); assay: HSF1 potentiators in luciferase reporter cells, confirmation, cell-based, NIH3T3, luminescence, dose retest (AID 435004); type: functional;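 also: stress induced by proteasome inhibitor MG132 added 30 min after compound; luciferase reporter driven by HSF1 response element in NIH3T3 cells; actives raise luminescence as potentiators of the MG132 stress response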
T3 sequence (P38532 whole entry): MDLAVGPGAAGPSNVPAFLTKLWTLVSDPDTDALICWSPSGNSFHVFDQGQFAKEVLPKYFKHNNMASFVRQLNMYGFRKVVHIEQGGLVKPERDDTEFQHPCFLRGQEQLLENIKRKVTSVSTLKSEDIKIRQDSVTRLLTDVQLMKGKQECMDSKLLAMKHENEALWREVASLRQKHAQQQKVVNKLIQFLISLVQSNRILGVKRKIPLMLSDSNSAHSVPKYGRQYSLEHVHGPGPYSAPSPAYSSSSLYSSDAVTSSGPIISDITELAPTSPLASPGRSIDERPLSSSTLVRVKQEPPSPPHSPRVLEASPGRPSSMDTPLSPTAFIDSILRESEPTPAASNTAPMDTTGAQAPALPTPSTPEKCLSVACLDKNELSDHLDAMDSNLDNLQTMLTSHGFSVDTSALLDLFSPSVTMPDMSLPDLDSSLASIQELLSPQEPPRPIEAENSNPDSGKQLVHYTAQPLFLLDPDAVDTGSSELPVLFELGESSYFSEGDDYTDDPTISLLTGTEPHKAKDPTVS

[4] = target: Luciferin 4-monooxygenase (Photinus pyralis, UniProt P08659); assay: firefly luciferase enzyme inhibitors, dose response, biochemical, luminescence (AID 1891)
[5] = Luminescence Cell-Based Dose Confirmation HTS to Identify Inhibitors of Platelet Dense Granule Release. [Related pubchem assays: 1663 (Primary HTS), 1678 (Summary of Project)]; type: functional
[6] = C. albicans growth with fluconazole, confirmation, fluorescence, retest (AID 2467); type: functional, cell-based
[7] = NIH-3T3 fibroblast cytotoxicity, dose response, cytotoxicity control, cell-based, fluorescence, Alamar Blue, secondary assay (AID 2327); type: functional;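 also: NIH-3T3 mouse fibroblasts cultured with fluconazole at 8 µg/mL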
H9c2 = assay: cells; type: functional, cell-based; settings: Rattus norvegicus, H9c2, Myocardium;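 also: confirmatory concentration-response retest of ultra-high-throughput screening hits for modulation of myocardial damage; cell death induced by hydrogen peroxide oxidative stress; compound pretreatment for 60 min then peroxide exposure for 2 h; potency is for protecting the cells against peroxide damage rather than for killing them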
[8] = HEp-2 cell cytotoxicity, dose response, cytotoxicity control for RSV inhibitor project, HTS (AID 2410); type: functional; settings: human respiratory syncytial virus
H4 = assay: Luminescence Cell-Based Dose Response HTS to Identify Activators of 5'UTR Stem-Loop Driven Prion Protein mRNA Translation in H4 Neuroglioblastoma Cells. [Related pubchem assays: 1829 (Project Summary), 1814 (Primary HTS)]; type: functional; settings: Homo sapiens
[9] = Luminescence Cell-Based Dose Confirmation HTS to Identify Activators of 5'UTR Stem-Loop Driven Alpha-Synuclein mRNA Translation in H4 Neuroglioblastoma Cells. [Related pubchem assays: 1829 (Project Summary), 1814 (Primary HTS)]; type: functional
[10] = Luminescence Cell-Based Dose Response HTS to Identify Activators of Luciferase Translation or Activity in H4 […] Cells. [Related pubchem assays: 1829 (Project Summary), 1814 (Primary HTS)]; type: functional
[11] = inhibitors of intracellular T. cruzi replication, confirmation, NIH3T3 host cells, beta-gal luminescence (AID 2044); type: functional, cell-based;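 also: intracellular parasites grown in NIH/3T3 mouse fibroblasts as host cells; luminescent beta-galactosidase reporter signal from transgenic T. cruzi replicating inside host cells; inhibitors lower the luminescence signal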
[12] = cytotoxicity toward NIH3T3 fibroblasts, dose response, counter-screen, cell-based, ATP luminescence, mouse fibroblasts (AID 2010); type: functional;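 also: cells exposed to compound for about 90 hours before reading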

Chain of Luciferin 4-monooxygenase (P08659 whole entry): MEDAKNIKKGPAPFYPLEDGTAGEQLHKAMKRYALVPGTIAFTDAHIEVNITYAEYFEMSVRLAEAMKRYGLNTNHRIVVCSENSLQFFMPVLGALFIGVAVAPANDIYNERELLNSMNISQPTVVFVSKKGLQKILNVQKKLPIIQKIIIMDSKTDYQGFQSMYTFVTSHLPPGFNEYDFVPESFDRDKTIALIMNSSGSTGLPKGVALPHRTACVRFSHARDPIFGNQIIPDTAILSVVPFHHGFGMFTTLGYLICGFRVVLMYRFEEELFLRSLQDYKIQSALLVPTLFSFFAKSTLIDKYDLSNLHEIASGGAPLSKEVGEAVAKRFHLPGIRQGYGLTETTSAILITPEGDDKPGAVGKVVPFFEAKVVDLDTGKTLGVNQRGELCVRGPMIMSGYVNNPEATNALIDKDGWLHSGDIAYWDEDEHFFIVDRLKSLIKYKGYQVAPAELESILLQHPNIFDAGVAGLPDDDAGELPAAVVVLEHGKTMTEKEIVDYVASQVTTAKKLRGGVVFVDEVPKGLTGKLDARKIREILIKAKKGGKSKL

O=C(NCCO)c1c(O)c2cccc3c2n(c1=O)CC3
EC50 [1]: > 53 µM (inactive) | IC50 [2]: > 47.1 µM (inactive)

CSc1cc(-c2ccco2)oc1C(=O)c1ccco1
IC50 (Protein skinhead-1): > 100 µM (inactive) | EC50 [3]: > 260 µM (inactive)

O=C1c2cc(Br)ccc2OC2C=CC=CC12 (stereo not drawn)
IC50 (Protein skinhead-1): 81 µM (inactive)

CSCCC1NC(=O)N(CC(=O)Nc2ccc(Br)cc2Br)C1=O (stereo not drawn)
EC50 [4]: > 112 µM (not active) | EC50 [5]: > 112 µM (not active)

CCOc1ccccc1N(CC(=O)N1CCC(C(N)=O)CC1)S(=O)(=O)c1ccc(SC)cc1
EC50 [1]: > 53 µM (inactive) | IC50 [2]: > 47.1 µM (inactive)

CC(=O)N1CCN(c2ccc(NC(=O)c3ccc(C(C)(C)C)cc3)cc2)CC1
EC50 [6]: 7.14 µM (active) | EC50 [7]: > 160 µM (inactive)

CC1CCN(c2oc(-c3ccccc3F)nc2C#N)CC1
IC50 (Protein skinhead-1): > 100 µM (inactive)

CC(C)n1c(N2CCN(C(=O)Nc3ccc(Cl)cc3)CC2)nc2ccccc21
EC50 [6]: > 38 µM (not active) | EC50 [7]: 140 µM (active)

CCCc1nc2sc3c(O)ncnc3c2c2c1CCCC2
EC50 [4]: > 112 µM (not active) | EC50 [5]: > 112 µM (not active)

COc1ccccc1-n1c(C)cc(SC)c(C(C)=O)c1=S
EC50 [6]: 14 µM (active) | EC50 [7]: > 150 µM (inactive)

CCCCN(C(=O)C1CC(=O)N(c2ccc(OC)cc2OC)C1)c1c(N)n(CC(C)C)c(=O)[nH]c1=O (stereo not drawn)
EC50 [4]: > 112 µM (not active) | EC50 [5]: 17.5 µM (active)

Cc1ccc(NC(=O)c2cccs2)cc1NC(=O)c1ccco1
IC50 (Protein skinhead-1): > 100 µM (inactive)

Cn1c(=O)c2c(nc(NCc3cccnc3)n2Cc2cccc(C(F)(F)F)c2)n(C)c1=O
IC50 (H9c2): 14 µM (active)

CCOC(=O)C1(CC2CCCCO2)CCN(Cc2nccn2-c2ccc(OC)cc2)CC1 (stereo not drawn)
EC50 [1]: > 53 µM (inactive) | IC50 [2]: > 47.1 µM (inactive)

O=C(COC(=O)c1ccc(Cl)nc1)Nc1ccc2ccccc2c1
IC50 (Protein skinhead-1): > 100 µM (inactive)

Cc1cccc(-n2c(SCc3cc(=O)n4ccsc4n3)nc3ccccc3c2=O)c1
IC50 (H9c2): > 79 µM (inactive) | CC50 [8]: 39.5 µM (active)

CC(C)(C)OC(=O)N1CCC(NC(=O)c2[nH]cnc2C(=O)NCC(=O)OCc2ccccc2)CC1
IC50 (H9c2): 47 µM (inactive)

Cc1nc2ccccc2n1/C(=N/S(=O)(=O)c1ccc(Br)cc1)c1ccccc1
EC50 [4]: > 112 µM (not active) | EC50 [5]: > 112 µM (not active)

Cc1cc(C(=O)Nc2ccccc2C(=O)O)ccc1NC(=O)COc1cccc([N+](=O)[O-])c1
EC50 [6]: 3.79 µM (active) | EC50 [7]: 22.8 µM (inconclusive)

[O-][n+]1c2ccccc2c2n1CCCN=C2c1ccc(Cl)cc1
EC50 (H4): 41.8 µM (active) | EC50 [9]: 7.98 µM (active) | EC50 [10]: 8.34 µM (active)

C=CCn1c(Oc2ccccc2)nc2c1c(=O)n(C)c(=O)n2C
EC50 [1]: > 53 µM (inactive)

Cc1nn(C)c(=O)n1-c1ccc(OCc2ccccc2)cc1
EC50 (H4): 12.9 µM (active) | EC50 [9]: 8.8 µM (active) | EC50 [10]: 49.9 µM (active)

CN(CC(=O)NCc1ccc(F)cc1)S(=O)(=O)c1ccc(Br)s1
EC50 [1]: > 53 µM (inactive) | IC50 [2]: > 47.1 µM (inactive)

Cc1ccc(NC(=O)c2cc(=O)c3ccccc3o2)cc1
EC50 (H4): 21.6 µM (active) | EC50 [9]: 1.12 µM (active) | EC50 [10]: 17.9 µM (active)

O=C1c2ccccc2C(=O)c2c1ccc(C(=O)N1CCCCC1)c2NCCO
IC50 (Protein skinhead-1): > 100 µM (inactive)

CCc1cc(C=C(Cl)Cl)oc(=O)c1C
EC50 (H4): > 120 µM (not active) | EC50 [9]: 6.98 µM (active) | EC50 [10]: 8.12 µM (active)

CCc1nc2ccc(C(=O)NCc3cccs3)cn2c1N(C)Cc1nccs1
IC50 (H9c2): 12.8 µM (active)

Cc1sc2nc(CSCC(=O)N(C)c3ccccc3)nc(O)c2c1C
IC50 (H9c2): > 79 µM (inactive)

Cc1ccc2nc(SCC(=O)N3CCOCC3)[nH]c2c1
EC50 [1]: > 53 µM (inactive) | IC50 [2]: > 47.1 µM (inactive)

Clc1ccc(-c2[nH]nc3c2CCCC3)cc1
EC50 (H4): 54.4 µM (active) | EC50 [9]: 10.4 µM (active) | CC50 [8]: 37.1 µM (active) | EC50 [10]: 16.2 µM (active)

Cc1ccc(NC(=O)/C(C#N)=C/c2cn(CC(=O)NCc3ccco3)c3ccccc23)cc1C
EC50 [1]: > 53 µM (inactive) | IC50 [2]: > 47.1 µM (inactive)

COc1cc(C(=O)N/N=C/c2ccc(OC(=O)c3ccccc3)c(OC)c2)ccc1O
IC50 (H9c2): > 79 µM (inactive)

O=C(NCCCN1CCCCC1)c1ccc2c(=O)n(CCc3ccccc3)c(=O)[nH]c2c1
EC50 (H4): 93.9 µM (active) | EC50 [9]: > 120 µM (not active) | EC50 [10]: 12.2 µM (active)

O=C(OCC(=O)c1cccs1)C1=COCCO1
EC50 (H4): 8.15 µM (active) | EC50 [9]: 15.4 µM (active) | EC50 [10]: 9.36 µM (active)

CC(=O)Nc1ccc(S(=O)(=O)N2CCC(NC(C)=O)(c3cccc(F)c3)CC2)cc1
EC50 [1]: > 53 µM (inactive) | IC50 [2]: > 47.1 µM (inactive)

CCC(=O)N1CCN(c2ccccc2NC(=O)c2ccc(-c3cccc([N+](=O)[O-])c3)o2)CC1
IC50 (H9c2): > 79 µM (inactive)

Cc1ccccc1[S+]([O-])Cc1ccc(C(=O)N2CCN(C(=O)c3ccco3)CC2)o1 (stereo not drawn)
IC50 (Protein skinhead-1): > 100 µM (inactive)

COc1cc2nc(SCc3ccc(Cl)cc3Cl)n(Cc3cccs3)c(=N)c2cc1OC
EC50 [6]: > 38 µM (not active) | EC50 [11]: 2.09 µM (active) | EC50 [12]: > 60 µM (inconclusive) | EC50 [7]: > 160 µM (inactive)

CCOC(=O)C1=C(NC(=O)c2ccc(S(=O)(=O)N(C)C)cc2)Nc2ccccc2N=C1CC
IC50 (H9c2): > 79 µM (inactive)

CCc1ccc(NC(=O)c2cc(-c3ccco3)on2)cc1
IC50 (Protein skinhead-1): > 100 µM (inactive)

CC(=O)Nc1cc(C(N)=O)c(Cl)cc1Cl
EC50 [1]: > 53 µM (inactive) | IC50 [2]: > 47.1 µM (inactive)

CC(C)(C)C(=O)Nc1ccc(C(=O)N/N=C/c2ccccc2OC(=O)c2ccccc2)cc1
IC50 (H9c2): 31.5 µM (inactive)
